Laboratory results from patent publication US20260234144A1 (TAY THERAPEUTICS LIMITED, priority 2023, published 2026).

Test system: R223X stop codon in the mutated luciferase gene, ADXC8 luciferase reporter cell line
Experiment: cells
Format: cell-based
Details: 24 h, ADXC8 cells, 24 hours; for Emax: read-out: Fold Over Control, maximum fold response relative to 200 μM G418; for EC (100% of 200 uM G418 response): read-out: pC100%, negative logarithm of the concentration giving the same response as 200 μM G418
Experimental: The read-through activity of compounds was assessed using the ADXC8 luciferase reporter cell line (generated as described in McElroy et al. PLoS Biology (2013), 11, e1001593). […] The amount of luciferase is measured by adding a lysis buffer containing luciferin substrate and detecting luminescence using the following protocol:
ADXC8 cells in assay media (DMEM+10% FBS) were seeded into 96-well tissue culture treated white plates (Greiner) to a density of 13,000 cells per well and incubated for 24 hours at 37° C. in an atmosphere of 5% CO2. […] Plates were incubated for a further 24 hours at 37° C. in an atmosphere of 5% CO2. Cells treated with 200 μM G418 (with 1% DMSO) were used as a positive control.
Cell viability and firefly luciferase activity were measured in the same assay wells. CellTiter-Fluor™ reagent was prepared as per manufacturer's instructions (Promega E7120) and 20 μl of 5× CellTiter-Fluor™ reagent was added to all wells, briefly mixed by orbital shaking (300-500 rpm for −30 seconds) and the plates incubated for 30-45 minutes at 37° C. in an atmosphere of 5% C02. Cell viability was measured by monitoring fluorescence on a CLARIOstar® plate reader (BMG Labtech). Cells containing 1% DMSO were used as a positive control and cells with 400 μM Doxorubicin were used as negative control to define 100 and 0% respectively. ONE-Glo™ luciferase assay buffer (Promega E7120) was prepared according to manufacturer's instructions and 100 μl of luciferase reagent was added to each well and the plate incubated at RT for 3 mins before measuring the luminescence on the CLARIOstar® plate reader (BMG Labtech). Cells treated with 200 μM G418 (with 1% DMSO) were used as a positive control and arbitrarily assigned a value of 100%. Cells treated with 1% DMSO were used as the negative control to define 0% response.
Concentration effect curves were analysed using non-linear regression using the CDD Vault from Collaborative Drug Discovery (Burlingame, CA). […] The bottom and top of the curves were constrained to 0 and the maximum measured response respectively. From the fitted curves, the software derived C100% values (the concentration giving the same response as 200 μM G418) for each compound. The negative logarithm of C100% is reported as pC100% (Table 1). In addition to pC100% values, the maximum fold response relative to 200 μM G418 (Fold over Control) was also captured (Table 1). A pC100% categorisation of ‘-’ in Table 1 represents examples in which a pC100% response was not reached when assayed at a concentration of 100 μM. A pC100% categorisation of ‘*’ in Table 1 represents examples in which a pC100% response was not reached when assayed at a concentration of 30 μM.

Row | Structure (SMILES) | Emax [%] | EC (100% of 200 uM G418 response) [µM]
1 | CN1CCC(Nc2nc(N)c3ccc(C#N)nc3n2)CC1 [Example 282] | 0 to 100 | > 31.6
2 | Cc1cc(C)c2c(N)nc(NC3CCN(Cc4cc(C(F)(F)F)ccc4O)CC3)nc2n1 [Example 541] | 0 to 100 | > 31.6
3 | Cc1cc(C)c2c(N)nc(NC3CCN(Cc4ccccc4C)CC3)nc2n1 [Example 550] | 100 to 3000 | 1 to 10
4 | Cc1cc(C)c2c(N)nc(NC3CC4CNCC4C3)nc2n1 (centres unmarked) [Example 205] | 100 to 3000 | 1 to 10
5 | CNc1nc(NC2CCN(Cc3ccccc3O)CC2)nc2nc(C)cc(C)c12 [Example 579] | 100 to 3000 | 0.1 to 1
6 | Cc1cc(C)c2c(N)nc(NCC3CN(C(=O)OC(C)(C)C)C3)nc2n1 [Example 139] | 100 to 3000 | 10 to 100
7 | Cc1ccc(CN2CCC(Nc3nc(N)c4c(C)cc(C)nc4n3)CC2)cc1 [Example 543] | 100 to 3000 | 1 to 10
8 | Cc1cc(C)c2c(N)nc(NCC(C)(C)CN(C)C)nc2n1 [Example 149] | 0 to 100 | > 31.6
9 | CNc1nc(N[C@H]2CN(C)C[C@H]2O)nc2nc3c(c(C)c12)CCC3 [Example 361] | 100 to 3000 | 1 to 10
10 | CNc1cc(C)c2c(NC)nc(N[C@@H]3CCN(C)C3)nc2n1 [Example 524, (R)—N^4,N^7,5-trimethyl-N^2-(1-methylpyrrolidin-3-yl)pyrido[2,3-d]pyrimidine-2,4,7-triamine] | 100 to 3000 | 1 to 10
11 | Cc1cc(C)c2c(N)nc(NC3CCN(Cc4c(C)cccc4C)CC3)nc2n1 [Example 468] | 100 to 3000 | 1 to 10
12 | Cc1cc(C)c2c(N)nc(N[C@@H]3CCN(Cc4ccc(C#N)cc4)C[C@H]3O)nc2n1 [Example 558] | 100 to 3000 | 1 to 10
13 | CNc1nc(N[C@H]2CN(Cc3ccccc3)C[C@@H]2O)nc2nc(C)cc(C)c12 [Example 622] | 100 to 3000 | 1 to 10
14 | CN1CCC(Nc2nc(N)c3ccc(-c4ccc(C(=O)O)cc4)nc3n2)CC1 [Example 84] | 0 to 100 | > 100
15 | CN1CCC(Nc2nc(N)c3c(n2)nc(-c2ccccc2)c2ccccc23)CC1 [Example 31, N^3-(1-methylpiperidin-4-yl)-6-phenylpyrimido[4,5-c]isoquinoline-1,3-diamine] | 100 to 3000 | 1 to 10
16 | CC(=O)Nc1ccc(CN2CCC(Nc3nc(N)c4c(C)cc(C)nc4n3)CC2)cc1 [Example 458] | 100 to 3000 | 10 to 100
17 | Cc1cc(C)c2c(Nc3ccccc3)nc(NC3CCN(C)CC3)nc2n1 [Example 267] | 0 to 100 | > 31.6
18 | CNc1cc(N[C@H]2CN(C)C[C@H]2O)nc2nc3c(c(C)c12)CCC3 [Example 619] | 100 to 3000 | 1 to 10
19 | CN1CCC(Nc2nc(N)c3ccc(-c4ccccc4O)nc3n2)CC1 [Example 106] | 0 to 100 | > 100
20 | CN(C)Cc1ccc(-c2ccc3c(N)nc(NC4CCN(C)CC4)nc3n2)cc1 [Example 105] | 100 to 3000 | 10 to 100
21 | Cc1nc2nc(NC3CCN(C)CC3)nc(N)c2cc1Br [Example 21, 6-bromo-7-methyl-N-(1-methylpiperidin-4-yl)pyrido[2,3-d]pyrimidine-2,4-diamine] | 100 to 3000 | 1 to 10
22 | Cc1cc(C)c2c(N)nc(NC3CCN(Cc4ncc[nH]4)CC3)nc2n1 [Example 487] | 100 to 3000 | 1 to 10
23 | COc1ccc(CNc2ccc3c(N)nc(NC4CCN(C)CC4)nc3n2)c(OC)c1 [Example 41, N^7-(2,4-dimethoxybenzyl)-N2-(1-methylpiperidin-4-yl)pyrido[2,3-d]pyrimidine-2,4,7-triamine] | 0 to 100 | > 100
24 | CN1CCC(Nc2nc(N)c3ccc(-c4ccccc4)nc3n2)CC1 [Example 27, N^2-(1-methylpiperidin-4-yl)-7-phenylpyrido[2,3-d]pyrimidine-2,4-diamine] | 100 to 3000 | 1 to 10
25 | Cc1cc(C)c2c(N)nc(NCCCN3CC(C(F)(F)F)C3)nc2n1 [Example 190] | 100 to 3000 | 10 to 100
